Measured values: publication PMC3073382 (Journal of medicinal chemistry, 2010)

Target: PKA (catalytic subunit) (Bos taurus, UniProt P00517)
Experiment: biochemical

Molecule `O=C(N[C@@H]1CNCCC[C@H]1OC(=O)c1cc(O)c(C(=O)c2c(O)cccc2C(=O)O)c(O)c1)c1ccc(O)cc1` [balanol] has an IC50 of 110 nM.
